Experimental data: patent US20050261194A1, “Use of thymulin-like peptides for making pain-relieving medicines” (priority 2001, published 2005)

Assays:
Format in all cases: in vivo, rat
rats [1] = test: CCI (chronic constriction injury) mononeuropathy: allodynia and hyperpathy
Procedure: Adult male Sprague-Dawley rats (250-300 g) were used for these trials. Over the period of the experiments, the rats were placed under standard conditions (4 to 5 individuals to a cage, 12 hour day/night cycle, 22.2° C.), with free access to water and food. The necessary surgical procedures were done under deep anesthesia using ketamine (Ketalar®, 40-50 mg/kg, intraperitoneal injection), preceded by pre-anesthesia using chlorpromazine (8 mg/kg, idem) and atropine (0.05 mg/kg, idem).
Mononeuropathy was induced in different groups of rats (n=6 rats in each group) according to the CCI (chronic constriction injury, chronic nerve constriction, Bennet G. J. et Xie Y. K., 1988, A peripheral mononeuropathy in rat that produces disorders of pain sensation like those seen in man, Pain, 33:87-107) or according to the SNI (spared nerve injury, spared nerve of the enervated paw, Decosterd I. et Woolf C. J., 2000, Spared nerve injury: an animal model of persistent peripheral neuropathic pain, Pain, 87:149-158). The sciatic nerve was exposed after dissection of the posterior hip and by incision through the skin and the fatty layer covering the popliteal fossa. For the CCI model, four loose ligatures (chromed catgut 4.0) were placed on the proximal side of the sciatic trifurcation. For the SNI model, the external popliteal sciatic nerve and the internal popliteal sciatic nerve were isolated, tightly ligatured and sectioned, while the sural nerve innervating the lateral aspect of the paw was left intact.
The rats were placed in individual compartments of one cage, whose floor was made of a metal grating allowing access to the heel pad and to the lateral aspect of the paw with wires.
For mechanical allodynia, the plantar surface of the hind paws (lateral surface for the SNI model and the median plantar surface for the CCI) was contacted with the von Frey wires (VFF 4.31 and 5.07, Stoelting Co., USA), which corresponded to the forces of 2.041 and 11.749 g (18.5 and 106.7 mN), respectively. […] The number of paw retractions induced by 10 trials was established for each rat on each hind paw prior to (baseline) and after induction of the mono-neuropathy. In normal rats, the low caliber wires (VFF 4.31) and higher caliber (VFF 5.07) induced an average 1.3±0.2 and 2.7±0.3 responses/10 trials, respectively.
The method described by Choi et al. (1994, Behavioral signs of ongoing pain and cold allodynia in a rat model of neuropathic pain, Pain, 59:369-376) was used for evaluation of cold allodynia. It consists of applying several drops (approximately 50 μl) of an acetone solution on the paw and measuring the duration of the retraction reaction. One half second and 20 seconds are the values chosen arbitrarily for the minimum and maximum threshold, respectively.
The duration (D) of retraction of the paw (RP) in response to a nociceptive ray of radiant heat oriented towards the plantar surface was established in the normal rat. […] the DRP after induction of the mononeuropathy was considered to be an indication of hyperalgesia. Each rat underwent two RP tests per session a minimum of every five minutes.
The neuropathic manifestations were at maximum seven to ten days after induction of the neuropathy. The effects of the injections of TAP were tested during this period, which corresponds to the peak of the neuropathy.
During the experiments done on rats suffering from neuropathy, allodynia and hyperpathy were evaluated in each group of animals with reference to the baseline condition established prior to induction of mononeuropathy. For example, the average of the number of paw withdrawal induced by each VFF was calculated for all of the rats of each group and the variation of this mean has been determined after treatment with TAP at different time periods after the injection. The same method has been followed for allodynia in the code and the hypertrophy relative to heat.

rats [2] = test: Visceral pain induced by intraperitoneal injection of capsaicin; 4-level behavioral scale
Procedure: This test consisted of injecting (i.p.) 20 μg of capsaicin in 100 μl of a 10% solution Tween 20 in olive oil in some rats and observing the behavior induced by these injections. A 4-level behavioral scale was designed according to the method described by Giesler G J et al., (1976, Inhibition of visceral pain by electrical stimulation of the periaqueductal gray matter, Pain 2:43-48).
The levels were defined as follows: 0=normal behavior; 1=slight contraction of the abdominal muscles; 2=contraction of one single side and luxation of the haunch dropping; 3=significant contraction of the abdominal muscles and extension of the two rear paws.
For the evaluation of the animals' behavior, each rat was placed in transparent cage placed over a mirror inclined at 45° for optimum observation.
[…] None of the two observers knew the injection administered nor the expected effects.
For the injection i.p. of the capsaicin, the total time corresponding to each behavioral level was measured for the animals having received the capsaicin alone or the capsaicin after the TAP. The variation of the neuropathic manifestations or of the pain tests after the treatments were evaluated by ANOVA then by Bonfrerroni tests done post hoc. The variations of the pain scores with or without treatment were evaluated by the Student bilateral test by assuming a significance level of 5% (p<0.05).

rats [3] = test: Systemic inflammatory hyperalgesia induced by intraperitoneal ET; PP and TF tests; details: TAP 25 μg i.p. thirty minutes before ET 50 μg i.p.
Procedure: In the second model, the rats receive an intraperitoneal injection of endotoxin ([…] in 100 μl of physiological saline solution).
Protocol 2(a): One group of rats received one intraperitoneal injection of ET (50 μg), while the other group was pretreated with the protein analogue of thymuline (TAP) (25 μg, intraperitoneal injection), 30 minutes before the injection of ET.
The TF and PP tests were then done at 1 hour, 3 hours and 6 hours after the injection of ET.

rats [4] = test: Daily treatment with TAP in neuropathic rats (model not stated, FIG. 11); details: TAP 1 μg in 100 μL daily over 5 consecutive days

Glu-Ala-lys-Ser-Gln-Gly-Gly-Ser-Asp (SQGGSD; N-terminal Glu-Ala-Lys; printed: Ser-Gln-Gly-Gly-Ser-Asp) [TAP]
reversibility of the effects, time after injection (rats [1]; CCI, TAP 5 μg i.p.): three to four hours | time of maximum effect on cold allodynia after injection (rats [1]; CCI, TAP 5 μg i.p.): 75 min | time of maximum effect on hyperpathy after injection (rats [1]; CCI, TAP 5 μg i.p.): 75 min | time of maximum effect on mechanical allodynia after injection (rats [1]; CCI, TAP 5 μg i.p.): two hours | dose giving maximal attenuation of the neuropathic manifestations (rats [1]; CCI, doses 1, 5 and 25 μg compared, FIG. 7): 5 μg/rat | effect on neuropathic manifestations, CCI model (rats [1]; TAP 5 μg in 100 μl i.p., FIG. 5): significant attenuation | effect on nociception scores induced by capsaicin (rats [2]; TAP 50 μg before capsaicin 20 μg i.p., FIG. 9): significant shift to the left | time at behavioral level 0 (rats [2]; TAP 50 μg in 200 μl/rat before capsaicin 20 μg i.p., capsaicin alone 0.2±0.3, 36 minutes observation): 0.82 ± 0.18 min | time at behavioral level 1 (rats [2]; TAP 50 μg in 200 μl/rat before capsaicin 20 μg i.p., capsaicin alone 2.51±0.45, 36 minutes observation): 12.89 ± 2.5 min | time at behavioral level 3 (rats [2]; TAP 50 μg in 200 μl/rat before capsaicin 20 μg i.p., capsaicin alone 11.84±0.43, 36 minutes observation): 6.67 ± 0.09 min | time at behavioral level 2 (rats [2]; TAP 50 μg in 200 μl/rat before capsaicin 20 μg i.p., capsaicin alone 21.5±0.8, 36 minutes observation): 15.62 ± 0.9 min | effect on mechanical hyperalgesia (PP test) (rats [3]; FIG. 4A): abolished | effect on thermal hyperalgesia (TF test) (rats [3]; FIG. 4B): abolished | effect of daily treatment on allodynia (rats [4]; FIG. 11): progressive reduction of the manifestations of the allodynia | effect of daily treatment on the effects of each injection (rats [4]; FIG. 11): potentiation of the effects of each injection | effect of daily treatment on cold allodynia (rats [4]; compared with single injection): increased inhibition of the cold allodynia
